Laboratory results: ChEMBL document CHEMBL1201862, “PubChem BioAssay data set” (2004)
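Method: 48-hour compound exposure of cells in 96-well plates, five concentrations, linear interpolation of endpoints. At the GI50, growth is halved.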 Activity calls are given as the source filed them. Cut-off read from the data, not from the text of the source: active = GI50 up to about 1.1 µM and inactive = higher.

Assays:
Assay in all cases: NCI anticancer screen, dose series, 48 h
A498 = tested on: A498
COLO 205 = tested on: COLO 205
HCT-15 = tested on: HCT-15
HT-29 = tested on: HT-29
Hs-578T = tested on: Hs-578T
IGROV-1 = tested on: IGROV-1
MOLT-4 = tested on: MOLT-4
Malme-3M = tested on: Malme-3M
NCI-H460 = tested on: NCI-H460
OVCAR-3 = tested on: OVCAR-3
RXF 393 = tested on: RXF 393
SF-539 = tested on: SF-539
SK-MEL-28 = tested on: SK-MEL-28
SK-MEL-2 = tested on: SK-MEL-2
SK-MEL-5 = tested on: SK-MEL-5
SN12C = tested on: SN12C
SNB-75 = tested on: SNB-75
T47D = tested on: T47D
TK-10 = tested on: TK-10
UO-31 = tested on: UO-31

SMILES	GI50 (A498)	GI50 (COLO 205)	GI50 (HCT-15)	GI50 (HT-29)	GI50 (Hs-578T)	GI50 (IGROV-1)	GI50 (MOLT-4)	GI50 (Malme-3M)	GI50 (NCI-H460)	GI50 (OVCAR-3)	GI50 (RXF 393)	GI50 (SF-539)	GI50 (SK-MEL-28)	GI50 (SK-MEL-2)	GI50 (SK-MEL-5)	GI50 (SN12C)	GI50 (SNB-75)	GI50 (T47D)	GI50 (TK-10)	GI50 (UO-31)
CCCCCCCCCc1cc(-c2ccc(C=O)s2)sc1-c1ccc(C=O)s1	1.6 µM (inactive)	20 µM (inactive)	24.8 µM	39.5 µM (inactive)	17.9 µM (inactive)	21 µM (inactive)	1.12 µM (inactive)	40.5 µM (inactive)	25.1 µM (inactive)	16.7 µM (inactive)	8.81 µM (inactive)	41.1 µM (inactive)	33.7 µM (inactive)	25.5 µM (inactive)	15.7 µM (inactive)	32.5 µM (inactive)	27 µM (inactive)	17.1 µM (inactive)	6.47 µM (inactive)	17.7 µM (inactive)
CCOC(=O)N/N=C(/N)c1cccc([N+](=O)[O-])c1	> 100 µM (inactive)	> 100 µM (inactive)	> 100 µM	> 100 µM (inactive)	> 100 µM (inactive)	> 100 µM (inactive)	> 100 µM (inactive)	> 100 µM (inactive)	> 100 µM (inactive)	> 100 µM (inactive)	> 100 µM (inactive)	> 100 µM (inactive)	> 100 µM (inactive)	> 100 µM (inactive)	> 100 µM (inactive)	> 100 µM (inactive)	80.2 µM (inactive)	> 100 µM (inactive)	> 100 µM (inactive)	> 100 µM (inactive)
C[C@]1(O)CC(=O)c2c(c(-c3ccc4cc5c(c(O)c4c3O)C(=O)C[C@@](C)(O)C5)c3cccc(O)c3c2O)C1	5.42 µM (inactive)	1.79 µM (inactive)	3.76 µM	5.71 µM (inactive)	4.06 µM (inactive)	4.67 µM (inactive)	9.44 µM (inactive)	6.35 µM (inactive)	3.24 µM (inactive)	3.71 µM (inactive)	4.58 µM (inactive)	2.75 µM (inactive)	10.4 µM (inactive)	2.52 µM (inactive)	3.66 µM (inactive)	6.22 µM (inactive)	7.59 µM (inactive)	2.86 µM (inactive)	6.82 µM (inactive)	4.16 µM (inactive)
O=C(Oc1ccccn1)c1cc2cc(CCl)ccc2oc1=O	70.6 µM (inactive)	51.2 µM (inactive)	39.4 µM	76.7 µM (inactive)	21.7 µM (inactive)	> 100 µM (inactive)	31.2 µM (inactive)	15.7 µM (inactive)	43.7 µM (inactive)	19.4 µM (inactive)	19 µM (inactive)	50.5 µM (inactive)	49 µM (inactive)	25.9 µM (inactive)	51.8 µM (inactive)	25.2 µM (inactive)	24.8 µM (inactive)	32.7 µM (inactive)	72.1 µM (inactive)	33.7 µM (inactive)
C/C(=N\N)C(CN1CCCCC1)C(c1ccccc1)c1c(O)c2ccccc2oc1=O (stereo not given)	> 100 µM (inactive)	> 100 µM (inactive)	> 100 µM	> 100 µM (inactive)	> 100 µM (inactive)	> 100 µM (inactive)	> 69.2 µM (inactive)	> 87.7 µM (inactive)	> 100 µM (inactive)	> 100 µM (inactive)	> 54.1 µM (inactive)	> 100 µM (inactive)	> 100 µM (inactive)	> 100 µM (inactive)	> 100 µM (inactive)	> 100 µM (inactive)	32.7 µM (inactive)	> 100 µM (inactive)	> 100 µM (inactive)	> 67.3 µM (inactive)
